Among the data in ChEMBL document CHEMBL1142996 (J Med Chem, 2007) are Ki values, retold here.

Non-standard residues stand in square brackets, D forms with d. Residues, ends and D or L forms follow the SMILES beside them. Phe(4-NH2) = Nc1ccc(C[C@H](N)C(=O)O)cc1

The test deals with T1, Angiotensin II receptor (AT-1) type-1 (Rattus norvegicus, UniProt P29089+P25095).
T1 sequence (P29089 whole entry): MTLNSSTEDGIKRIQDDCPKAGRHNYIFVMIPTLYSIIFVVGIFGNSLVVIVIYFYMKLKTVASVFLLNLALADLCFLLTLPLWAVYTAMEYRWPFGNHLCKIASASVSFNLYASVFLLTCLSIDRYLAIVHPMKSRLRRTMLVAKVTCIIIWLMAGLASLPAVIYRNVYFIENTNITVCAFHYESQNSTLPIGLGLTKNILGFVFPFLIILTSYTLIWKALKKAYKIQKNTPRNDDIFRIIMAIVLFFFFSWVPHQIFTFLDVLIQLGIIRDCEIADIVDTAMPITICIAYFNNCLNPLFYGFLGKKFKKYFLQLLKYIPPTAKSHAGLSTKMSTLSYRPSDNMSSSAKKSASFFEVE
T1 sequence (P25095 whole entry): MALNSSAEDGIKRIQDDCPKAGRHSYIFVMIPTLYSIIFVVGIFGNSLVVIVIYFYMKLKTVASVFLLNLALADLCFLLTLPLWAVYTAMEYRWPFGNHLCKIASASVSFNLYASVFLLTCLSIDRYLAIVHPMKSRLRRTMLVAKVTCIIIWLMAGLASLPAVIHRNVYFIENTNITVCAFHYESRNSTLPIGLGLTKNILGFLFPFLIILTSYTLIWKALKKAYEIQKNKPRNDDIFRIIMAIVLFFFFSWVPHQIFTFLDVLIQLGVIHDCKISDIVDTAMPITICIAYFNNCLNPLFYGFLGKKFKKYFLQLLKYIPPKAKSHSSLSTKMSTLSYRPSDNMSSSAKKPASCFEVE
As to the kind of experiment: Displacement of [125I]Ang2 from AT1 receptor in rat liver membrane. The test is classed as cell membranes. In general terms: In a radioligand displacement assay an active substance lowers the binding of a labelled ligand.
Regarding `O=C(O)[C@H](Cc1ccccc1)NC(=O)[C@@H]1CCCN1C(=O)c1cccc(Cc2cnc[nH]2)c1`, the inhibition constant Ki is > 10 µM.
As to `CC[C@H](C)[C@H](NC(=O)[C@@H]1CCCN1C(=O)[C@@H](N)Cc1cnc[nH]1)C(=O)O` (H-His-Pro-Ile-OH), the Ki was > 10 µM.
Regarding `CC(=O)N[C@@H](Cc1cnc[nH]1)C(=O)N1CCC[C@H]1C(=O)N[C@@H](Cc1ccccc1)C(=O)O` (Ac-His-Pro-Phe-OH), the Ki was > 10 µM.
Under `CC[C@@H](C)[C@H](NC(=O)c1cccc(Cn2ccnc2)c1)C(=O)O` stands > 10 µM; under `CC[C@H](C)[C@H](NC(=O)[C@H](Cc1ccc(O)cc1)NC(=O)[C@@H](NC(=O)[C@H](CCCNC(=N)N)NC(=O)[C@@H](N)CC(=O)O)C(C)C)C(=O)N[C@@H](Cc1ccc(N)cc1)C(=O)N1CCC[C@H]1C(=O)N[C@@H](Cc1ccccc1)C(=O)O` (H-DRVYI[Phe(4-NH2)]PF-OH), > 10 µM.
To `CC[C@@H](C)[C@H](NC(=O)[C@@H]1CCCN1C(=O)c1cccc(Cn2ccnc2)c1)C(=O)O` belongs > 10 µM; to `O=C(O)[C@H](Cc1ccccc1)NC(=O)[C@@H]1CCCN1C(=O)c1cccc(Cn2ccnc2)c1`, > 10 µM.
Take `CC[C@H](C)[C@H](NC(=O)[C@@H]1CCCN1C(=O)[C@H](Cc1cnc[nH]1)NC(C)=O)C(=O)O` (Ac-His-Pro-Ile-OH): the inhibition constant Ki was > 10 µM.
Under `CC[C@@H](C)[C@H](NC(=O)c1cccc(Cc2cnc[nH]2)c1)C(=O)O` stands > 10 µM; under `CC[C@@H](C)[C@H](NC(=O)[C@@H]1CCCN1C(=O)c1cccc(Cc2cnc[nH]2)c1)C(=O)O`, > 10 µM.
For `O=C(N[C@@H](Cc1ccccc1)C(=O)O)c1cccc(Cc2cnc[nH]2)c1`, the inhibitory constant (Ki) was > 10 µM.
To `N[C@@H](Cc1cnc[nH]1)C(=O)N1CCC[C@H]1C(=O)N[C@@H](Cc1ccccc1)C(=O)O` (H-His-Pro-Phe-OH) belongs 1.598 µM; to `O=C(N[C@@H](Cc1ccccc1)C(=O)O)c1cccc(Cn2ccnc2)c1`, > 10 µM.

In general, Ki refers to the equilibrium dissociation constant of an inhibitor or competing ligand from its target. The low end stands for higher affinity, the high end for lower affinity.
